{
  "source": "the NIST ThermoML archive (doi:10.1016/j.jct.2009.09.009)",
  "key": {"[1]": {"conditions": "Crystal, Calculated from knudsen effusion weight loss"}, "[2]": {"test": "molar enthalpy of vaporization or sublimation", "conditions": "Crystal, Clausius-Clapeyron equation and measured Psat"}},
  "note": "Several values for one entry are separate records, joined by “and”; a condition that tells them apart may be missing. Equal values may be shown once. Numbers after ± are expanded uncertainties.",
  "data": [
    {"smiles": "Nc1cccc2c(N)cccc12", "note": "[1,5-diaminonaphthalene]", "values": [
      {"measurement": "vapor or sublimation pressure", "setting": "[1]; 367.07 K", "result": "0.000122 ± 6e-06 kPa and 0.000123 ± 6e-06 kPa and 0.000125 ± 6e-06 kPa"},
      {"measurement": "vapor or sublimation pressure", "setting": "[1]; 369.1 K", "result": "0.00015 ± 8e-06 kPa and 0.000153 ± 8e-06 kPa and 0.000149 ± 7e-06 kPa"},
      {"measurement": "vapor or sublimation pressure", "setting": "[1]; 371.16 K", "result": "0.000193 ± 1e-05 kPa and 0.00019 ± 1e-05 kPa and 0.000182 ± 9e-06 kPa"},
      {"measurement": "vapor or sublimation pressure", "setting": "[1]; 373.08 K", "result": "0.000243 ± 1.2e-05 kPa and 0.000229 ± 1.1e-05 kPa and 0.000246 ± 1.2e-05 kPa"},
      {"measurement": "vapor or sublimation pressure", "setting": "[1]; 375.1 K", "result": "0.000311 ± 1.6e-05 kPa and 0.000289 ± 1.4e-05 kPa and 0.000286 ± 1.4e-05 kPa"},
      {"measurement": "vapor or sublimation pressure", "setting": "[1]; 377.16 K", "result": "0.000365 ± 1.8e-05 kPa and 0.000344 ± 1.7e-05 kPa and 0.000338 ± 1.7e-05 kPa"},
      {"measurement": "vapor or sublimation pressure", "setting": "[1]; 379.09 K", "result": "0.000432 ± 2.2e-05 kPa and 0.000427 ± 2.1e-05 kPa and 0.000417 ± 2.1e-05 kPa"},
      {"measurement": "vapor or sublimation pressure", "setting": "[1]; 381.1 K", "result": "0.000535 ± 2.7e-05 kPa and 0.000522 ± 2.6e-05 kPa and 0.000502 ± 2.5e-05 kPa"},
      {"measurement": "vapor or sublimation pressure", "setting": "[1]; 383.16 K", "result": "0.00064 ± 3.2e-05 kPa and 0.000622 ± 3.1e-05 kPa and 0.000603 ± 3e-05 kPa"},
      {"measurement": "vapor or sublimation pressure", "setting": "[1]; 385.08 K", "result": "0.000758 ± 3.8e-05 kPa and 0.000781 ± 3.9e-05 kPa and 0.000757 ± 3.8e-05 kPa"},
      {"measurement": "vapor or sublimation pressure", "setting": "[1]; 387.09 K", "result": "0.000967 ± 4.8e-05 kPa and 0.00093 ± 4.7e-05 kPa and 0.000909 ± 4.6e-05 kPa"},
      {"measurement": "vapor or sublimation pressure", "setting": "[1]; 389.16 K", "result": "0.001163 ± 0.00012 kPa and 0.001096 ± 0.00011 kPa and 0.001063 ± 0.00011 kPa"},
      {"measurement": "molar enthalpy", "setting": "[2]; 378.11 K", "result": "28.3 ± 0.717", "unit": "kcal/mol"}
    ]},
    {"smiles": "Nc1cccc2cccc(N)c12", "note": "[1,8-diaminonaphthalene]", "values": [
      {"measurement": "vapor or sublimation pressure", "setting": "[1]; 314.1 K", "result": "4.71e-05 ± 2.4e-06 kPa and 4.91e-05 ± 2.5e-06 kPa and 4.81e-05 ± 2.4e-06 kPa"},
      {"measurement": "vapor or sublimation pressure", "setting": "[1]; 316.18 K", "result": "6.84e-05 ± 3.4e-06 kPa and 6.65e-05 ± 3.3e-06 kPa and 6.32e-05 ± 3.2e-06 kPa"},
      {"measurement": "vapor or sublimation pressure", "setting": "[1]; 318.18 K", "result": "8.3e-05 ± 4.2e-06 kPa and 7.89e-05 ± 4e-06 kPa and 8.02e-05 ± 4e-06 kPa"},
      {"measurement": "vapor or sublimation pressure", "setting": "[1]; 320.09 K", "result": "0.000102 ± 5e-06 kPa and 9.96e-05 ± 5e-06 kPa"},
      {"measurement": "vapor or sublimation pressure", "setting": "[1]; 322.13 K", "result": "0.000135 ± 7e-06 kPa and 0.000127 ± 6e-06 kPa and 0.000126 ± 6e-06 kPa"},
      {"measurement": "vapor or sublimation pressure", "setting": "[1]; 324.19 K", "result": "0.000165 ± 8e-06 kPa and 0.000155 ± 8e-06 kPa and 0.000159 ± 8e-06 kPa"},
      {"measurement": "vapor or sublimation pressure", "setting": "[1]; 326.12 K", "result": "0.000197 ± 1e-05 kPa and 0.000204 ± 1e-05 kPa and 0.000181 ± 9e-06 kPa"},
      {"measurement": "vapor or sublimation pressure", "setting": "[1]; 328.19 K", "result": "0.000261 ± 1.3e-05 kPa and 0.000251 ± 1.3e-05 kPa and 0.000244 ± 1.2e-05 kPa"},
      {"measurement": "vapor or sublimation pressure", "setting": "[1]; 330.17 K", "result": "0.000315 ± 1.6e-05 kPa and 0.000298 ± 1.5e-05 kPa and 0.000296 ± 1.5e-05 kPa"},
      {"measurement": "vapor or sublimation pressure", "setting": "[1]; 332.07 K", "result": "0.000351 ± 1.8e-05 kPa and 0.000379 ± 1.9e-05 kPa and 0.000364 ± 1.8e-05 kPa"},
      {"measurement": "vapor or sublimation pressure", "setting": "[1]; 334.12 K", "result": "0.000485 ± 2.4e-05 kPa and 0.000472 ± 2.4e-05 kPa and 0.000466 ± 2.3e-05 kPa"},
      {"measurement": "vapor or sublimation pressure", "setting": "[1]; 336.19 K", "result": "0.000583 ± 2.9e-05 kPa and 0.00056 ± 2.8e-05 kPa and 0.000585 ± 2.9e-05 kPa"},
      {"measurement": "vapor or sublimation pressure", "setting": "[1]; 338.08 K", "result": "0.000707 ± 3.5e-05 kPa and 0.000739 ± 3.7e-05 kPa and 0.000734 ± 3.7e-05 kPa"},
      {"measurement": "molar enthalpy", "setting": "[2]; 326.09 K", "result": "23.3 ± 0.335", "unit": "kcal/mol"}
    ]}
  ]
}
